Laboratory results from paper PMC10178848, “Modulating fast skeletal muscle contraction protects skeletal muscle in animal models of Duchenne muscular dystrophy” (The Journal of Clinical Investigation, 2023).
pIC50: −log10 of the molar value. Where two headings read alike, the source gives them in different places.

Experiments:
[1] = target: T1, PIK3CG (Homo sapiens, UniProt P48736); assay: KINOMEscan scanEDGE; format: binding; conditions: 20 uM
T1 construct: purchased Eurofins DiscoverX (KINOMEscan; SAFETYscan E/IC50 ELECT)

[2] = target: T2, PRKCE (Homo sapiens, UniProt Q02156); assay: KINOMEscan scanEDGE; format: binding; conditions: 20 uM
T2 construct: purchased Eurofins DiscoverX (KINOMEscan; SAFETYscan E/IC50 ELECT)

[3] = target: T3, PDPK1 (Homo sapiens, UniProt O15530); assay: KINOMEscan scanEDGE; format: binding; conditions: 20 uM
T3 construct: purchased Eurofins DiscoverX (KINOMEscan; SAFETYscan E/IC50 ELECT)
T3 sequence (O15530 whole entry): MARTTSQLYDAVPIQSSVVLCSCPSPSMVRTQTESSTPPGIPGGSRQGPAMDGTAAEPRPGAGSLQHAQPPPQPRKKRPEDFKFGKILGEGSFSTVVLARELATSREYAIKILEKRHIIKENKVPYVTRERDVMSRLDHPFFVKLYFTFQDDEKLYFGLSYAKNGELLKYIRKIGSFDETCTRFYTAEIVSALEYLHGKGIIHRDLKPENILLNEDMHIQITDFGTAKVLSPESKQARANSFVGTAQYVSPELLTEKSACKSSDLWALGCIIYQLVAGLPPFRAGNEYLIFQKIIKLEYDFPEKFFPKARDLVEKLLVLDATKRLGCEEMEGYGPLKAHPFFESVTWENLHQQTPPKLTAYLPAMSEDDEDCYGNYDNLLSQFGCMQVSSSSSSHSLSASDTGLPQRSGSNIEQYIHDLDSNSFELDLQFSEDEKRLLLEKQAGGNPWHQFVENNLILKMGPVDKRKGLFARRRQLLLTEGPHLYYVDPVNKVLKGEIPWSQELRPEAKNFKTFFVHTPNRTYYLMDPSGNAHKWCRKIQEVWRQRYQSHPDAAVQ

[4] = target: T4, PAK1 (Homo sapiens, UniProt Q13153); assay: KINOMEscan scanEDGE; format: binding; conditions: 20 uM
T4 construct: purchased Eurofins DiscoverX (KINOMEscan; SAFETYscan E/IC50 ELECT)

[5] = target: mouse gastrocnemius myofibrils; assay: Myofibril ATPase, mouse gastrocnemius; format: biochemical; conditions: 21% IIa, 15% IIx, 56% IIb
[6] = target: Rabbit Cardiac myofibrils; assay: Myofibril ATPase, rabbit cardiac; format: biochemical; conditions: 25% MHCα, 75% MHC β, at pCa 50
[7] = test system: WT or mdx mice; assay: Rotarod endurance; format: in vivo, mouse; conditions: single doses up to 10 mg/kg, 4 hours after oral administration
Description: Prior to in vivo assessments, mice were dosed PO after a 2-hour fast with 10 mL/Kg suspensions. Grip strength and rotarod assessments were performed masked, 4 hours after dosing using published protocols ([66], [67]). Grip strength was performed with a Columbus Instruments Rodent Force Meter. Forepaw strength represented the average of 5 trials with 30-second rest periods, normalized by BW. Rotarod endurance was performed with a Columbus Instruments RotaMax. Mice were placed on the device drum at 1 rpm, which accelerated 1 rpm every 3 seconds to 12 rpm and a maximal time of 500 seconds. This was repeated 3 times with a 3-minute rest and total time reported. Voluntary wheel running performance was assessed with a customized system. Timestamped RPMs were measured 24 hours per day by infrared sensors, and a custom software calculated distance. Whole-body EBD was visualized after intravenous administration ([35]). EBD in PBS at 10 mg/mL was sterile filtered, and 50 μL/10 g BW was injected via tail vein. After 24 hours, animals were sacrificed, skin was removed and fixed in 4% formalin for 24 hours, and photographed using a Leica/Lumix camera.

[8] = target: T5, CDK9 (Homo sapiens, UniProt P50750); assay: KINOMEscan scanEDGE; format: binding; conditions: 20 uM
T5 construct: purchased Eurofins DiscoverX (KINOMEscan; SAFETYscan E/IC50 ELECT)

[9] = target: T6, PDGFRB (Homo sapiens, UniProt P09619); assay: KINOMEscan scanEDGE; format: binding; conditions: 20 uM
T6 construct: purchased Eurofins DiscoverX (KINOMEscan; SAFETYscan E/IC50 ELECT)

[10] = target: T7, nAChR(a4/b2) (Homo sapiens, UniProt P17787+P43681); assay: SAFETYscan Ion Channel; format: cell-based; set-up: dose or concentration left out as unconfirmed
T7 construct: purchased Eurofins DiscoverX (KINOMEscan; SAFETYscan E/IC50 ELECT)
T7 sequence (P43681 29-627 limits assumed): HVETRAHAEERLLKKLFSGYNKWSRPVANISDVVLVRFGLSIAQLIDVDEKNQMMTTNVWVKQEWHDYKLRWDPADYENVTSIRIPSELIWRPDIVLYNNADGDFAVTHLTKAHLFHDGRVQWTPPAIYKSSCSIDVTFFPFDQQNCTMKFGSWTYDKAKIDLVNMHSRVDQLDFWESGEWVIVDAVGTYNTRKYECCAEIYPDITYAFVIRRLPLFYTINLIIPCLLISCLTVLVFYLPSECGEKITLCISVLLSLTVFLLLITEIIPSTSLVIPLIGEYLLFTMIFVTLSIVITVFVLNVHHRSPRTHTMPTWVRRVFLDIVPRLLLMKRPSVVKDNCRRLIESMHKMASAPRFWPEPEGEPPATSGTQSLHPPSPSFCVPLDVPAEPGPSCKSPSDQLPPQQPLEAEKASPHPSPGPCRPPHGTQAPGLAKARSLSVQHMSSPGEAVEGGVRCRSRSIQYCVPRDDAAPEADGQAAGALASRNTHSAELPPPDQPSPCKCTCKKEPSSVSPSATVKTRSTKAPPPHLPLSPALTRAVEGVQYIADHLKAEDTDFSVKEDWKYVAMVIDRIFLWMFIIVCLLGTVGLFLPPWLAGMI
T7 sequence (P17787 26-502): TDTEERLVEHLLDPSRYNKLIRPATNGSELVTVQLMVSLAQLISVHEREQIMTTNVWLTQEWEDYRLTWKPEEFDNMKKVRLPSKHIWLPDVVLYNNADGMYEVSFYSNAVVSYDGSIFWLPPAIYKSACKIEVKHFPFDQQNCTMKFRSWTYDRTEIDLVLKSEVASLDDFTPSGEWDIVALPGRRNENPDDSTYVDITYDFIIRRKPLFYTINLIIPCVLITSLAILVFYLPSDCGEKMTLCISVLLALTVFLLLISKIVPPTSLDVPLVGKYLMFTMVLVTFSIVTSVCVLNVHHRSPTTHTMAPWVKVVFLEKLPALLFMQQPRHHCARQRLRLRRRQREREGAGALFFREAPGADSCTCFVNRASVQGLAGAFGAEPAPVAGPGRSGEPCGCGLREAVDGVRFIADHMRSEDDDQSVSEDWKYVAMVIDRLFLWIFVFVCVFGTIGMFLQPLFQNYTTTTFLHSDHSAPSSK
Description: (§1) The specificity of EDG-5506 for fast skeletal myosin over other, unrelated proteins was confirmed using two off-target binding and activity screens. […] A second off-target panel (SAFETYscan E/IC50 ELECT, Eurofins DiscoverX) tested in vitro enzyme activity against 78 proteins, including GPCR, ion channel, kinases, nuclear hormone receptors, and transporters. In all assays, the IC50 of EDG-5506 was more than 10 μM (Supplemental Data File 1).

[11] = target: T8, NAV1.5 (Homo sapiens, UniProt Q14524); assay: SAFETYscan Ion Channel; format: cell-based; set-up: dose or concentration left out as unconfirmed; conditions: read-out: Max Response (%) (Antagonist)
T8 construct: purchased Eurofins DiscoverX (KINOMEscan; SAFETYscan E/IC50 ELECT)
Description: as §1

[12] = target: T9, KvLQT1/minK (Homo sapiens, UniProt P51787); assay: SAFETYscan Ion Channel; format: cell-based; set-up: dose or concentration left out as unconfirmed
T9 construct: purchased Eurofins DiscoverX (KINOMEscan; SAFETYscan E/IC50 ELECT)
Description: as §1

[13] = target: T10, CAV1.2 (Homo sapiens, UniProt Q13936); assay: SAFETYscan Ion Channel; format: cell-based; set-up: dose or concentration left out as unconfirmed; conditions: read-out: Max Response (%) (Agonist)
T10 construct: purchased Eurofins DiscoverX (KINOMEscan; SAFETYscan E/IC50 ELECT)
Description: as §1

[14] = target: T11, HTR3A (Homo sapiens, UniProt P46098); assay: SAFETYscan Ion Channel; format: cell-based; set-up: dose or concentration left out as unconfirmed
T11 construct: purchased Eurofins DiscoverX (KINOMEscan; SAFETYscan E/IC50 ELECT)
T11 sequence (P46098 24-478): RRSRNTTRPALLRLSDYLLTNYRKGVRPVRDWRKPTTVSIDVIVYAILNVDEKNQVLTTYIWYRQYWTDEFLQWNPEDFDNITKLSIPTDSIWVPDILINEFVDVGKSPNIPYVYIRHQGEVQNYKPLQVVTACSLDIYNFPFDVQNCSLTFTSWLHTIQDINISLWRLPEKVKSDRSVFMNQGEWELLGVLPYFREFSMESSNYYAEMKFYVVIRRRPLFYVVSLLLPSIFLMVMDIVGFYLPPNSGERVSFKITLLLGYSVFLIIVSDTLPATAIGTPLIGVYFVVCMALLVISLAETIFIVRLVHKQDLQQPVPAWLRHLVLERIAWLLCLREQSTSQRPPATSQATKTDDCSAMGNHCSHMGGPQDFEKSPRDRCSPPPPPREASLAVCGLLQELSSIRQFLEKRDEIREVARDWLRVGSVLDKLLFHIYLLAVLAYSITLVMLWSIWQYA
Description: as §1

[15] = target: T12, hERG (Homo sapiens, UniProt Q12809); assay: SAFETYscan Ion Channel; format: cell-based; set-up: dose or concentration left out as unconfirmed; conditions: read-out: Max Response (%) (Agonist)
T12 construct: purchased Eurofins DiscoverX (KINOMEscan; SAFETYscan E/IC50 ELECT)
Description: as §1

[16] = target: T13, NMDAR (1A/2B) (Homo sapiens, UniProt Q05586+Q13224); assay: SAFETYscan Ion Channel; format: cell-based; set-up: dose or concentration left out as unconfirmed
T13 construct: purchased Eurofins DiscoverX (KINOMEscan; SAFETYscan E/IC50 ELECT)
T13 sequence (Q13224 27-1484, other chains not shown): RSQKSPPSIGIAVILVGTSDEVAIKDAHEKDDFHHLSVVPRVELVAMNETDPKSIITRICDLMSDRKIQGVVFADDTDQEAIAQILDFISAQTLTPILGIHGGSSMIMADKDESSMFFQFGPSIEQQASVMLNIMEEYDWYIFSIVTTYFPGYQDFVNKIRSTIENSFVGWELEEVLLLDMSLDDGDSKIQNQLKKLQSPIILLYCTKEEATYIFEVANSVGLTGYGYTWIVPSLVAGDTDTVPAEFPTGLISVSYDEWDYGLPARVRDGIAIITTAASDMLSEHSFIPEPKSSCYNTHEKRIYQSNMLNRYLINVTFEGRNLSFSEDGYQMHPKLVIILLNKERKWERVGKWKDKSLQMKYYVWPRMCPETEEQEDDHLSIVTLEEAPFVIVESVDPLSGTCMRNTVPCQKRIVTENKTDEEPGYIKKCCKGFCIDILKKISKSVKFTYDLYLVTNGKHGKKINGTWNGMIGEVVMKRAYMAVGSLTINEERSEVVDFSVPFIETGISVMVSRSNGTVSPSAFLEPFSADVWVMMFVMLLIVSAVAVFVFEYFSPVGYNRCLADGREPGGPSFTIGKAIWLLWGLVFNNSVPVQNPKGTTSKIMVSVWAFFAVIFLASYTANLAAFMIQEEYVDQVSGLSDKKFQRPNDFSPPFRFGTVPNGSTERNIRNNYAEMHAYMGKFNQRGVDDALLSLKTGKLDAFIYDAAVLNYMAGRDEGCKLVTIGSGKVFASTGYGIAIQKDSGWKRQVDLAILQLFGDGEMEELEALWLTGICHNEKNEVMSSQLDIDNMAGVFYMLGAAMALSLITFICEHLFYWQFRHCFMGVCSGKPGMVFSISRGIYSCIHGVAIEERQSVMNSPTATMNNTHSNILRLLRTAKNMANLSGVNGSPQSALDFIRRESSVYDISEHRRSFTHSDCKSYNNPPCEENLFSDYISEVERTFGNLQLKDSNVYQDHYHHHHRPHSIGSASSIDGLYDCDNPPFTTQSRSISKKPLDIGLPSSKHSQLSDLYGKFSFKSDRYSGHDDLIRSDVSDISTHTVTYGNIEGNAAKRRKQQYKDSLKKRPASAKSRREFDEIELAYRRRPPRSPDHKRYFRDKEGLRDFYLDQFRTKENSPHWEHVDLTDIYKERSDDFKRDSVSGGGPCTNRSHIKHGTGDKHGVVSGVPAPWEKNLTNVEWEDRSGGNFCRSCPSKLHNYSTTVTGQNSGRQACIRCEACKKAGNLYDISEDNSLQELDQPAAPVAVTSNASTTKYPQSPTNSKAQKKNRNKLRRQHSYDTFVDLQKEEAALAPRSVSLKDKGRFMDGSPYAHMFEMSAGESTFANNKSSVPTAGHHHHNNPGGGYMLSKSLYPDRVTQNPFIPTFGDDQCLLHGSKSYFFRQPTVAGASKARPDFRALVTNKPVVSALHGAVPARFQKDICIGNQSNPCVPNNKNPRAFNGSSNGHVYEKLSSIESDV
Description: as §1

[17] = target: T14, IGF1R (Homo sapiens, UniProt P08069); assay: KINOMEscan scanEDGE; format: binding; conditions: 20 uM
T14 construct: purchased Eurofins DiscoverX (KINOMEscan; SAFETYscan E/IC50 ELECT)
T14 sequence (P08069 31-1367): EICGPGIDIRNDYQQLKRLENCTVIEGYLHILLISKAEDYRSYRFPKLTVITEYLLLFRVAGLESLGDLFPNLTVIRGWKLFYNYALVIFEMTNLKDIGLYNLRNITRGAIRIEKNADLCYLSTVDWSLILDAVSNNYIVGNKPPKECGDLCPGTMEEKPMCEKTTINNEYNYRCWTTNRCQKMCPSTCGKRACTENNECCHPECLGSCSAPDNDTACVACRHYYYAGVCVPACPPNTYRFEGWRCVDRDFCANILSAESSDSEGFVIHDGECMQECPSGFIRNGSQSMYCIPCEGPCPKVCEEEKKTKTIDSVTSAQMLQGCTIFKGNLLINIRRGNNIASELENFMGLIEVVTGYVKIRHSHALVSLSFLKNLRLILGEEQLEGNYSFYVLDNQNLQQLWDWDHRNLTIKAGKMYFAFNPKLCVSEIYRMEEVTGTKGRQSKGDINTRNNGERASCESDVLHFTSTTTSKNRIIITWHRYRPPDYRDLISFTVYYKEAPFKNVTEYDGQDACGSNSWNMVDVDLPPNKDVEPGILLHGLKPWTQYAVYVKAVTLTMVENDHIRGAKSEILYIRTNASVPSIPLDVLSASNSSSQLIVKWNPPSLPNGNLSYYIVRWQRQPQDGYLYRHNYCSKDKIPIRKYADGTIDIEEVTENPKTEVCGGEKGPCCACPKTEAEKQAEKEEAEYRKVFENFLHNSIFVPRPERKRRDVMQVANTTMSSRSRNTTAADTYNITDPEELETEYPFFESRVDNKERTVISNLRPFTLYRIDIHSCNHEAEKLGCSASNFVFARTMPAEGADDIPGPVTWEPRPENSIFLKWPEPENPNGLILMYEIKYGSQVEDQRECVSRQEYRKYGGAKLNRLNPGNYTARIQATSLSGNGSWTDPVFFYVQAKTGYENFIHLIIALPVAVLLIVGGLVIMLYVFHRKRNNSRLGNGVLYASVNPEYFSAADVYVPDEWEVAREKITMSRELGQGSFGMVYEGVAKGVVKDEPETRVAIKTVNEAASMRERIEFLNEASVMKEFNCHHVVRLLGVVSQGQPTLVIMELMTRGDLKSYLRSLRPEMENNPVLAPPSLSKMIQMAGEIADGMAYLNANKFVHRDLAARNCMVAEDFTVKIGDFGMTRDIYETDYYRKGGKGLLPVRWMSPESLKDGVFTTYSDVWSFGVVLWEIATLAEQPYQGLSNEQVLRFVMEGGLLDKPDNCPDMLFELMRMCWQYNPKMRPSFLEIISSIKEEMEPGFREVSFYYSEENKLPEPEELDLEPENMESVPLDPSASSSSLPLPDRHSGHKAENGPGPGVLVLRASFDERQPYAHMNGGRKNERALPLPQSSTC

[18] = test system: 90 kinase proteins; assay: KINOMEscan off-target binding panel (whole panel); conditions: 20 μM
[19] = read-out: Max Response (%) (Agonist)
[20] = read-out: Max Response (%) (Antagonist)

O=c1ccc(-c2cnc(OCC(F)(F)F)nc2)nn1Cc1cncc(F)c1 [EDG-5506]
binding, % of control [1]: 100 % of control | binding, % of control [2]: 81 % of control | binding, % of control [3]: 95 % of control | binding, % of control [4]: 100 % of control | pIC50 [5]: 6.40 | pIC50 [6]: < 4.00 | rotarod endurance [7]: no effect | binding, % of control [8]: 96 % of control | binding, % of control [9]: 100 % of control | Emax [10, 19]: 0% | Emax [10, 20]: 0% | Emax [11]: 2.32% | Emax [12, 19]: 0% | Emax [12, 20]: 18.6% | Emax [13]: 26.5% | Emax [14, 19]: 0.36% | Emax [14, 20]: 8.58% | Emax [15]: 13.1% | Emax [16, 19]: 0% | Emax [16, 20]: 0% | binding, % of control [17]: 94 % of control | binding affinity with kinase panel [18]: did not exhibit any binding affinity
